Consider 5 compounds from US7268231B2, “1,5-Naphthyridine azolinone” (Hoffmann-La Roche Inc., priority 2004, dated 2007).

For the experiment, the target named is T1, recombinant human CDK1/Cyclin B complex (Homo sapiens, UniProt P06493).
T1 construct: made in house; host or cells: High Five insect cells (baculovirus) for CDK1/GST-cyclin B; M15 E. coli for the Rb substrate
T1 sequence (P06493 whole entry): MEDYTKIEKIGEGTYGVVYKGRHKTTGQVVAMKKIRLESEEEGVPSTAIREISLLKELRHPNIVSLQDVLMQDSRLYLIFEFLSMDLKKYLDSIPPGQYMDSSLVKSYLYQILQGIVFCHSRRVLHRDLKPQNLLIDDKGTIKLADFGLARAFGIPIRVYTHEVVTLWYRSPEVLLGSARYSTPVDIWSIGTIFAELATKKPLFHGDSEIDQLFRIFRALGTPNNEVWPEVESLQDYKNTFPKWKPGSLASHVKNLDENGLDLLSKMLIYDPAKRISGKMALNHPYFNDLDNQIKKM
T1 sequence (P14635 whole entry partner): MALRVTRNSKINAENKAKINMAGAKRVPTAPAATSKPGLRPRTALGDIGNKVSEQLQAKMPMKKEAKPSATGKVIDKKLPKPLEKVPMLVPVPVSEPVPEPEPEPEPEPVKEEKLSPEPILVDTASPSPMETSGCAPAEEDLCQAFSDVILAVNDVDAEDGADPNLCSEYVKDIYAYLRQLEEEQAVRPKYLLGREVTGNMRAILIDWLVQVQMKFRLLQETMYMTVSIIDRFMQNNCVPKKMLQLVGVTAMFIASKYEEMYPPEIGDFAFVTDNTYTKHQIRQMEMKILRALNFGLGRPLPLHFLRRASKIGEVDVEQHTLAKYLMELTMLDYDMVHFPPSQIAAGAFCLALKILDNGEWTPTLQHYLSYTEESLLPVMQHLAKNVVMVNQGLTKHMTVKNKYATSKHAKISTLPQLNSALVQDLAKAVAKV
Put plainly: CDK1/Cyclin B kinase assay (FlashPlate or HTRF). It counts as biochemical. The note with it: Rb protein substrate, Ki=IC50/(1+[S]/Km). As for the experimental part:
To determine inhibition of CDK1 activity, either FlashPlate™ (NEN™-Life Science Products) assay or HTRF assay was performed. Both types of kinase assays were carried out using recombinant human CDK1/Cyclin B complex. GST-cyclinB (GST-cycB) and CDK1 cDNA clones in baculovirus vectors were provided by Dr. W. Harper at the Baylor College of Medicine, Houston, Tex. Proteins were co-expressed in High Five™ insect cells and the complex was purified on glutathione Sepharose resin (Pharmacia, Piscataway, N.J.) as previously described (Harper, J. W. et al. Cell 1993, 75, 805-816). A 6×-Histidine tagged truncated form of retinoblastoma (Rb) protein (amino acid 386-928) was used as the substrate for the CDK1/Cyclin B assay (the expression plasmid was provided by Dr. Veronica Sullivan, Department of Molecular Virology, Roche Research Centre, Welwyn Garden City, United Kingdom). The Rb protein is a natural substrate for phosphorylation by CDK1 (see Herwig and Strauss Eur. J. Biochem. Vol. 246 (1997) pp. 581-601 and the references cited therein). The expression of the 62Kd protein was under the control of an IPTG inducible promoter in an M15 E. coli strain. Cells were lysed by sonication and purification was carried out by binding lysates at pH 8.0 to a Ni-chelated agarose column pretreated with 1 mM imidazole. The resin was then washed several times with incrementally decreasing pH buffers to pH 6.0, and eluted with 500 mM imidazole. Eluted protein was dialysed against 20 mM HEPES pH 7.5, 30% glycerol, 200 mM NaCl, and 1 mM DTT. Purified Rb fusion protein stocks were quantitated for protein concentration, aliquoted, and stored at −70° C.
For the FlashPlate kinase assay, 96-well FlashPlates were coated with Rb protein at 10 μg/ml, using 100 μl per well. Plates were incubated at 4° C. overnight or at room temperature for 3 hours on a shaker. To control for nonspecific phosphorylation, one row of wells was coated with 100 μl/well coating buffer (20 mM HEPES, 0.2 M NaCl). Plates were then washed twice with wash buffer (0.01% Tween 20 in phosphate-buffered saline). Compounds to be tested (“test compounds”) were added to the wells at 5× final concentration. Reactions were initiated by immediate addition of 40 μl reaction mix (25 mM HEPES, 20 mM MgCl2, 0.002% Tween 20, 2 mM DTT, 1 μM ATP, 4 nM 33P-ATP) and a sufficient amount of enzyme to give counts that were at least 10-fold above background. Plates were incubated at room temperature on a shaker for 30 minutes. Plates were washed four times with the wash buffer, sealed, and counted on the TopCount scintillation counter (Packard Instrument Co., Downers Grove, Ill.]. The percent inhibition of Rb phosphorylation, which is a measure of the inhibition of CDK activity, was determined according to the following formula:
[formula] where “test compound” refers to the average counts per minute of the test duplicates, “nonspecific” refers to the average counts per minute when no CDK1/Cyclin B, etc., was added, and “total” refers to the average counts per minute when no compound was added. […] The value of the inhibitor constant Ki is calculated by the following: Ki=IC50/(1+[S]/Km), where [S] is the ATP concentration and Km is Michaelis constant.
The Homogeneous Time Resolved Fluorescence (HTRF) kinase assay was carried out in 96-well polypropylene plates (BD Biosciences, Bedford, Mass.). […]
(In general: Time-resolved FRET reads energy transfer from a long-lived donor to a nearby acceptor.)
As to `NC1=NC(=O)/C(=C/c2ccc3ncccc3n2)S1` [Example 4, 2-Amino-5-[1,5]naphthyridin-2-ylmethylene-thiazol-4-one], the Ki turned out to be 4670 nM.

For `O=C1N=C(NCc2ccc(F)c(Cl)c2)S/C1=C\c1ccc2ncccc2n1` [Example 8, 2-(3-Chloro-4-fluoro-benzylamino)-5-[1,5]naphthyridin-2-ylmethylene-thiazol-4-one], the Ki amounted to 279 nM.

For `O=C1N=C(NCc2ccc(C(F)(F)F)cc2C(F)(F)F)N/C1=C\c1ccc2ncccc2n1` [Example 20, 2-(2,4-Bis-trifluoromethyl-benzylamino)-5-[1,5]naphthyridin-2-ylmethylene-1,5-dihydro-imidazol-4-one], the Ki stood at 735 nM.

Regarding `Cc1cccc(Cl)c1CNC1=NC(=O)/C(=C/c2ccc3ncccc3n2)S1` [Example 12, 2-(2-Chloro-6-methyl-benzylamino)-5-[1,5]naphthyridin-2-ylmethylene-thiazol-4-one], the Ki is 31.7 nM.

As for `CC(=O)NC1=NC(=O)/C(=C/c2ccc3ncccc3n2)N1` [Example 16, N-(5-[1,5]Naphthyridin-2-ylmethylene-4-oxo-4,5-dihydro-1H-imidazol-2-yl)-acetamide], the Ki amounted to 1180 nM.

Broadly, the Ki is the equilibrium dissociation constant of an inhibitor or competing ligand from its target.
